Results reported in ChEMBL document CHEMBL3616470, “Biological evaluation of angular disubstituted naphthoimidazoles as anti-inflammatory agents” (Bioorg Med Chem Lett, 2015).
The source made the active and inactive calls. The rule behind the calls is not given here.

Tests used:
[1] = system: RAW264.7; assay: Cytotoxicity against mouse RAW264.7 cells assessed as cell viability at 10 to 20 uM after 24 hrs by MTT assay; format: cell-based; conditions: raw264.7, 24 h
[2] = system: RAW264.7; assay: Antiinflammatory activity in mouse RAW264.7 cells assessed as inhibition of LPS-induced NOS2 expression at 20 uM treated 30 mins before LPS stimulation measured after 24 hrs by Western blotting; format: functional, cell-based
[3] = system: RAW264.7; assay: Antiinflammatory activity in mouse RAW264.7 cells assessed as inhibition of LPS-induced COX2 expression at 20 uM treated 30 mins before LPS stimulation measured after 24 hrs by Western blotting; format: functional, cell-based
[4] = system: RAW264.7; assay: Antiinflammatory activity in mouse RAW264.7 cells assessed as inhibition of LPS-induced nitric oxide production treated 30 mins before LPS stimulation measured after 24 hrs by Griess assay; format: functional, cell-based
[5] = system: RAW264.7; assay: Antiinflammatory activity in mouse RAW264.7 cells assessed as inhibition of LPS-induced NOS2 expression at 10 to 20 uM treated 30 mins before LPS stimulation measured after 24 hrs by Western blotting; format: functional, cell-based
[6] = system: RAW264.7; assay: Antiinflammatory activity in mouse RAW264.7 cells assessed as inhibition of LPS-induced COX2 expression at 10 to 20 uM treated 30 mins before LPS stimulation measured after 24 hrs by Western blotting; format: functional, cell-based
[7] = system: RAW264.7; assay: Inhibition of NFkappaB activation in mouse RAW264.7 cells assessed as reduction of LPS-induced IkappaBalpha level in cytosol at 20 uM treated 30 mins before LPS stimulation measured after 24 hrs by Western blotting; format: cell-based
[8] = system: RAW264.7; assay: Inhibition of NFkappaB activation in mouse RAW264.7 cells assessed as reduction of LPS-induced IkappaBbeta level in cytosol at 20 uM treated 30 mins before LPS stimulation measured after 24 hrs by Western blotting; format: cell-based
[9] = system: RAW264.7; assay: Inhibition of NFkappaB activation in mouse RAW264.7 cells assessed as reduction of LPS-induced p65 level in nucleus at 20 uM treated 30 mins before LPS stimulation measured after 24 hrs by Western blotting; format: cell-based

`COc1cc(-n2c(-c3cccc(F)c3)nc3cc(OC)c4ccccc4c32)c(OC)c2ccccc12` was tested. Which Activity [1] did it give?
The Activity was “Non-toxic”.

Which Activity [1] does the source give for `COc1cc2nc(-c3ccc([N+](=O)[O-])cc3)n(-c3ccccc3Br)c2c2ccccc12` here?
The Activity was “Non-toxic”.

For `COc1cc(-n2c(-c3ccc([N+](=O)[O-])cc3)nc3cc(OC)c4ccccc4c32)c(OC)c2ccccc12`, which Activity [1] is on record?
The Activity was “Non-toxic”.

With `COc1cc(-n2c(-c3ccccc3)nc3cc(OC)c4ccccc4c32)c(OC)c2ccccc12` as the compound, how does the Activity [1] read?
Its Activity is “Non-toxic”.

What about the inhibition [2] of the same compound?
The inhibition was “inactive”.

What about the inhibition [3] of the same compound?
Its inhibition is “inactive”.

`COc1cc(-n2c(-c3cccnc3)nc3cc(OC)c4ccccc4c32)c(OC)c2ccccc12` was tested. Which Activity [1] did it give?
Its Activity is “Non-toxic”.

What about the IC50 [4] of the same compound?
The IC50 was 8.4 µM.

What about the inhibition [4] of the same compound?
Its inhibition is “Dose-dependent effect”.

What about the inhibition [5] of the same compound?
Its inhibition is “Active”.

What about the inhibition [6] of the same compound?
Its inhibition is “Active”.

And the inhibition [7]?
Its inhibition is “Active”.

What about the inhibition [8] of the same compound?
Its inhibition is “Active”.

What about the inhibition [9] of the same compound?
The inhibition was “Active”.

For `COc1cc(-n2c(-c3ccsc3)nc3cc(OC)c4ccccc4c32)c(OC)c2ccccc12`, which Activity [1] is on record?
The Activity was “Non-toxic”.
